Measurements: patent US8476271B2 (priority 2008, dated 2013)
Where a name gives a salt, the structure may show the parent alone.

How the values were obtained:
[1] = abnormal behavioral side effects (sedation, hyperactivity, hypoactivity); conditions: rat, in vivo
[2] = tested on: FCA-induced thermal hyperalgesia; assay: FCA model of inflammatory pain, thermal hyperalgesia (PWL, plantar test); assay type: in vivo; conditions: rat
Experimental: (§1) Each experiment used rats weighing between 200-260 g at the start of the experiment. The rats were group-housed and had free access to food and water at all times, except prior to oral administration of a Substituted-Quinoxaline-Type Bridged-Piperidine Compound when food was removed for 16 hours before dosing. A control group acted as a comparison to rats treated with a Substituted-Quinoxaline-Type Bridged-Piperidine Compound. The control group was administered the carrier for the Substituted-Quinoxaline-Type Bridged-Piperidine Compound. The volume of carrier administered to the control group was the same as the volume of carrier and Substituted-Quinoxaline-Type Bridged-Piperidine Compound administered to the test group.
To assess the actions of a Substituted-Quinoxaline-Type Bridged-Piperidine Compound for the treatment or prevention of inflammatory pain, the Freund's complete adjuvant (“FCA”) model of inflammatory pain was used. […] The left hind paw of each animal was administered a 50 μL intraplantar injection of 50% FCA. 24 hour post injection, the animal was assessed for response to noxious mechanical stimuli by determining the PWT, or to noxious thermal stimuli by determining the PWL, as described below. […] Responses to noxious mechanical stimuli were then determined 1, 3, 5 and 24 hours post administration. Percentage reversal of hyperalgesia for each animal was defined as: […]
The plantar test can be used to assess thermal hyperalgesia. For this test, hind paw withdrawal latencies (PWL) to a noxious thermal stimulus were determined using a plantar test apparatus (commercially available from Ugo Basile of Italy) following the technique described by K. Hargreaves et al., “A New and Sensitive Method for Measuring Thermal Nociception in Cutaneous Hyperalgesia,” Pain 32(1):77-88 (1988). The maximum exposure time was set at 32 seconds to avoid tissue damage and any directed paw withdrawal from the heat source was taken as the end point. Three latencies were determined at each time point and averaged. Either only the affected (ipsilateral) paw was tested, or both the ipsilateral and contralateral (non-injured) paw were tested.

[3] = tested on: nerve injury-induced mechanical hyperalgesia; assay: Seltzer partial sciatic nerve ligation model of neuropathic pain, mechanical hyperalgesia (PWT); assay type: in vivo; conditions: rat, 3 mg/kg
Experimental: as §1
Partial ligation of the left sciatic nerve was performed under isoflurane/O2 inhalation anesthesia. Following induction of anesthesia, the left thigh of the rat was shaved and the sciatic nerve exposed at high thigh level through a small incision and was carefully cleared of surrounding connective tissues at a site near the trocanther just distal to the point at which the posterior biceps semitendinosus nerve branches off of the common sciatic nerve. A 7-0 silk suture was inserted into the nerve with a ⅜ curved, reversed-cutting mini-needle and tightly ligated so that the dorsal ⅓ to ½ of the nerve thickness was held within the ligature. The wound was closed with a single muscle suture (4-0 nylon (Vicryl)) and vetbond tissue glue. Following surgery, the wound area was dusted with antibiotic powder. Sham-treated rats underwent an identical surgical procedure except that the sciatic nerve was not manipulated. Following surgery, animals were weighed and placed on a warm pad until they recovered from anesthesia. Animals were then returned to their home cages until behavioral testing began. The animals were assessed for response to noxious mechanical stimuli by determining PWT, as described below, prior to surgery (baseline), then immediately prior to and 1, 3, and 5 hours after drug administration for rear paw of the animal. Percentage reversal of neuropathic hyperalgesia was defined as: […]
The paw pressure assay was used to assess mechanical hyperalgesia. For this assay, hind paw withdrawal thresholds (PWT) to a noxious mechanical stimulus were determined using an analgesymeter (Model 7200, commercially available from Ugo Basile of Italy) as described in C. […] The maximum weight that could be applied to the hind paw was set at 250 g and the end point is taken was complete withdrawal of the paw. PWT was determined once for each rat at each time point and either only the affected (ipsilateral) paw was tested, or both the ipsilateral and contralateral (non-injured) paw were tested.

[4] = biological target: hERG (human ether a-go-go gene) (Homo sapiens (Human), UniProt Q12809); assay: cardiovascular side effects: in vitro hERG assay and APD in guinea pig purkinje fibers
Experimental: These side effects were determined using known methods: an in vitro hERG (human ether a-go-go gene) assay as disclosed in Z. Zhou et al., “Properties of HERG Channels Stably Expressed in HEK 293 Cells Studied at Physiological Temperature,” Biophysical J. 74:230-241 (1998); and APD (action potential duration) in guinea pig purkinje fibers as disclosed in J. A. Hey, “The Guinea Pig Model for Assessing Cardiotoxic Proclivities of Second Generation Antihistamines,” Arzneimittelforschung 46(8):834-837 (1996).

[5] = 5 mg/kg dose, 1 hour after administration
[6] = 5 mg/kg dose, 3 hours after administration
[7] = 5 mg/kg dose, 5 hours after administration

Compound: O=C(O)c1nc2ccccc2n([C@H]2C[C@H]3CC[C@@H](C2)N3C2CCCCCCCCCC2)c1=O [Compound 358, 4-((endo)-8-cycloundecyl-8-azabicyclo[3.2.1]octan-3-yl)-3-oxo-3,4-dihydroquinoxaline-2-carboxylic acid]
- abnormal behavioral side effects, such as sedation, hyperactivity and/or hypoactivity [1]: reduced abnormal behavioral side effects
- % reversal of thermal hyperalgesia [2, 5]: 34%
- % reversal of thermal hyperalgesia [2, 6]: 46%
- % reversal of thermal hyperalgesia [2, 7]: 79%

Compound: O=C(O)c1nc2ccccc2n([C@H]2C[C@H]3CC[C@@H](C2)N3[C@H]2C[C@@H]3CCC[C@@H](C3)C2)c1=O [Compound 361, 4-((endo)-8-((exo)-bicyclo[3.3.1]nonan-3-yl)-8-azabicyclo[3.2.1]octan-3-yl)-3-oxo-3,4-dihydroquinoxaline-2-carboxylic acid]
- abnormal behavioral side effects, such as sedation, hyperactivity and/or hypoactivity [1]: reduced abnormal behavioral side effects
- % reversal of thermal hyperalgesia [2, 5]: 36%
- % reversal of thermal hyperalgesia [2, 6]: 90%
- % reversal of thermal hyperalgesia [2, 7]: 70%

Compound: O=C(O)c1nc2ccccc2n([C@H]2C[C@H]3CCC[C@@H](C2)N3C2CC3CCCC(C3)C2)c1=O (stereo partly drawn) [Compound 362, 4-((endo)-9-((exo)-bicyclo[3.3.1]nonan-3-yl)-9-azabicyclo[3.3.1]nonan-3-yl)-3-oxo-3,4-dihydroquinoxaline-2-carboxylic acid]
- abnormal behavioral side effects, such as sedation, hyperactivity and/or hypoactivity [1]: reduced abnormal behavioral side effects
- % reversal of thermal hyperalgesia ([2]; 3 mg/kg dose, 1 hour after administration): 86%
- % reversal of thermal hyperalgesia ([2]; 3 mg/kg dose, 3 hours after administration): 51%
- % reversal of thermal hyperalgesia ([2]; 3 mg/kg dose, 5 hours after administration): 27%
- ED50 for reversal of thermal hyperalgesia ([2]; 1 hour after administration): 0.8 mg/kg
- ED50 for reversal of thermal hyperalgesia ([2]; 3 hours after administration): 1.5 mg/kg
- ED50 for reversal of thermal hyperalgesia ([2]; 5 hours after administration): 3.0 mg/kg
- % reversal of mechanical hyperalgesia ([3]; 1 hour after administration): 60%
- % reversal of mechanical hyperalgesia ([3]; 3 hours after administration): 60%
- % reversal of mechanical hyperalgesia ([3]; 5 hours after administration): 50%
- % reversal of mechanical hyperalgesia ([3]; 7 hours after administration): 40%
- cardiovascular side effects [4]: reduced cardiovascular side effects

Compound: C[C@@H]1C[C@@H]2C[C@H](C1)C[C@@H](N1[C@@H]3CCC[C@H]1C[C@@H](n1c(=O)c(C(=O)O)nc4ccccc41)C3)C2 [Compound 405, (exo, endo, endo)-4-(9-(7-methylbicyclo[3.3.1]nonan-3-yl)-9-azabicyclo[3.3.1]nonan-3-yl)-3-oxo-3,4-dihydroquinoxaline-2-carboxylic acid potassium salt]
- % reversal of mechanical hyperalgesia ([3]; 1 hour after administration): 70%
- % reversal of mechanical hyperalgesia ([3]; 3 hours after administration): 70%
- % reversal of mechanical hyperalgesia ([3]; 5 hours after administration): 70%
